Measurements taken from patent US7939083B2, “Soluble, stabilized, proteolytically cleaved, trimeric HIV-1 gp140 proteins comprising modifications in the N-terminus of the gp41 ectodomain” (Progenics Pharmaceuticals Inc., priority 2006, dated 2011).

Assays:
[1] = Tween 20 aggregate conversion experiments (BN-PAGE); assay type: physicochemical; settings: Tween 20 0.05%, 10 minutes, room temperature
Procedure: Tween® 20 Dose effect: 1 ug of purified KNH1144 SOSIP R6 trimer was incubated with varying concentrations of Tween® 20 (polyoxyethylene sorbitan monolaurate) ranging from 0 to 0.0001% (v/v) and incubated for 1 hour at room temperature. Following incubation, samples were analyzed by BN-PAGE as described above.
Kinetics of Tween® 20 effect: To ascertain the early kinetics of the Tween® 20 effect on aggregate, 1 ug of purified KNH1144 SOSIP R6 trimer was incubated with Tween® 20 at a final concentration of 0.05% (v/v) for 5 minutes and for 10 minutes. A no-detergent control was included separately for each timepoint.
Temperature dependance on Tween® 20 effect: To determine if temperature affected the ability of Tween® 20 to recover trimers from aggregates (i.e., collapse aggregate into trimer), 1 ug of purified KNH1144 SOSIP R6 trimer was incubated with Tween® 20 to a final concentration of 0.05% (v/v) at 0° C. […] Following the incubation, samples were analyzed by BN-PAGE and Coomassie staining.
Following the treatment, samples were analyzed by BN-PAGE and Coomassie staining.
Tween® 20 effect on -2-macroglogulin (a2M): 0.5 ug of purified -2-macroglobulin was either untreated or treated with Tween® 20 at a final concentration of 0.05% for 10 minutes at room temperature. Reactions were analyzed via BN-PAGE, followed by Coomassie staining.

[2] = DEAE anion exchange chromatography of Tween 20-treated trimers; assay type: physicochemical; settings: Tween 20 treated (0.05%), TN-75 buffer
Procedure: Purified KNH1144 SOSIP R6 gp140 trimers, treated either with or without 0.05% Tween® 20 (final), containing a2M contaminant in TN-75 buffer was applied over 1 ml DEAE HiTrap FF column (equilibrated in TN-75) at 0.25 ml/min at RT and flow-through (FT) fractions were collected. Following sample loading, the column was washed with TN-75 at 0.5 ml/min and wash fractions were collected. Finally, the column was eluted with TN-300 and equal amounts from each fraction were analyzed via BN-PAGE, followed by Coomassie G-250 staining.

[3] = tested on: JR-FL gp41 NT 1-5 Env-pseudotyped virus; assay type: cell-based, HIV-1 JR-FL; settings: U87.CD4.CCR5 cells; in nM for T-20
Procedure: (§1) Pseudotyped virions bearing JR-FL envelope glycoproteins (WT and mutant) were produced by cotransfection of selected env clones with a luciferase-expressing reporter vector, pNL4-3Env(−)Luc(+), as described above. To measure infectivity, luciferase-expressing Env-pseudotyped viruses (50 μl) containing normalized amounts of p24 antigen were added to 3×10^3 U87.CD4.CCR5 cells/well. U87.CD4.CXCR4 cells were used as a negative control. After 4 days, th cells were lysed with 75 μl of 1× Glo lysis buffer (Promega, Calif.) for subsequent quantification of luciferase, which was expressed by the Env-pseudotyped virions that contain the gene for firefly luciferase inserted into the nef gene of HIV-1, using the Bright-Glo™ Luciferase Assay Substrate (Promega, Calif.) and a VICTOR3 1420 multilabel counter (Perkin Elmer Life Sciences, Mass.).
(§2) Neutralization of infectivity was performed as described previously (Trkola et al., 1998). The pseudovirions were incubated with an equal volume of various MAbs, CD4-IgG2, or T-20 for 1 hour at 37° C. before the residual infectivity was determined using U87.CD4.CCR5 cells as described above. The concentration of each inhibitor was expressed as the amount present after the inhibitor-virus mixture was added to the cells. The data were analyzed by non-linear regression (variable-slope sigmoidal dose response) to calculate the inhibitor concentrations that caused 50% reductions in luciferase expression (IC50), using the GraphPad Prism 4 software (maximal viral production in the absence of inhibitor was designated as 100%).

[4] = tested on: JR-FL WT Env-pseudotyped virus; assay type: cell-based, HIV-1 JR-FL
Procedure: as §1, §2

| Substance | effect of Tween 20 on BN-PAGE migration [1] | binding to DEAE column [2] | IC50 [3] | IC50 against WT Env-pseudotyped virus greater than against the mutant [4] | IC50 ([4]; U87.CD4.CCR5 cells, in nM for T-20) |
| --- | --- | --- | --- | --- | --- |
| a2M: acidic 726 kDa tetrameric glycoprotein, contaminant/control protein | No change was observed in the migratory pattern | bound to the DEAE column | – | – | – |
| enfuvirtide | – | – | 11.5 nM | 2 fold | 24.2 nM |
